Patent US8580789B2, “Treating glaucoma” (The Cleveland Clinic Foundation, priority 2007, dated 2013)

Tests used:
human PS = details: strips incubated in 0.5 M agent over 5 days; cited from earlier work
human LC = details: strips incubated in 0.5 M agent over 5 days; cited from earlier work
porcine sclera = details: scleral strips; 1 hour glutaraldehyde, 5 days glyceraldehydes, 30 minutes UVA for riboflavin/UVA; cited from earlier work
human sclera = details: scleral strips; 1 hour glutaraldehyde, 5 days glyceraldehydes, 30 minutes UVA for riboflavin/UVA; cited from earlier work
porcine corneas = test: Corneal surface wave elastometry after standard crosslinking or flash-linking; details: group 1
Method: To investigate comparative cornea stiffness values in porcine corneas after standard crosslinking and a new, rapid method of crosslinking (flash-linking) using surface wave elastometry (Sonic Eye, PriaVision Inc, Menlo Park, Calif.).
Six porcine eyes were treated using a UVA double diode with 4.2 mW/cm2 UVA at 370 nm while applying 0.1% riboflavin-5-phosphate drops to the central cornea every 5 minutes as a photosensitizer for 30 min (group 1). The next 6 porcine corneas were treated with a single application of a customized photoactive crosslinking agent (PriaVision Inc) and 30 seconds of UVA light at the same power and wavelength (group 2). Following both experimental treatments, the Sonic Eye system was used to measure ultrasound surface wave propagation time between two fixed-distance transducers applied to the cornea along central horizontal and vertical positions. Intraocular pressure was continuously monitored using a digital pressure monitor display (Infinity SC9000XL, Drager medical, Lubeck, Germany) after vitreous chamber cannulation with a 23-gauge needle.

cortical neurons = details: cited from earlier work; for Protection of neurons from the neurotoxic effect of 3-deoxyglucosone and methylglyoxal: cotreatment with aminoguanidine, pretreatment with N-acetylcysteine
[1] = tested on: internal limiting membrane of the retina; details: direct application; white light for 3 minutes; cited from earlier work
[2] = tested on: optic nerve/lamina cribrosa complex; test: Surface wave velocity (stiffness) across the optic nerve/lamina cribrosa complex of whole globes, Sonic Eye elastometer; set-up: species or system porcine; details: Example 1 group 2
Method: (§1) Surface wave velocity (SWV) is a measure of tissue stiffness, and is performed by detecting the velocity of an ultrasonic wave between 2 points (Sonic Eye, Priavision, Menlo Park, Calif.) (Dupps W J, et al., J Refract Surg; 23: 66-75 (2007)). 19 porcine eyes were divided into 2 groups. In group 1 (6 eyes), the SWV across the exposed optic nerve/lamina cribrosa complex (ON/LCC) was initially measured at the eyes' physiologic IOP and at 100 mmHg. The porcine globes were cannulated with IV tubing to facilitate the change in IOP. In group 2 (13 eyes), the pre-treatment SWV was measured across the same region and atop the peri-papillary sclera, after which both regions were treated with riboflavin 1%, Q 5 min×6, and UVA irradiation (˜365 nm at 3 mW/cm^2) for 30 min per eye. The SWV was then re-measured in each eye at the pre-treatment IOP and at 100 mmHg.
(§2) An annular sponge soaked in GTA was exposed to the peripapillary sclera for ˜30 minutes, and not the ON/LCC. Measurements were repeated as above, but also along each quadrant of peripapillary sclera to ensure uniformity and symmetry of crosslinking around the ON/LCC. The results are summarized as follows:
(§3) Eighteen porcine globes were divided evenly into 3 groups. The optic nerves were transected to expose the ON/LC, and each globe was infused through an in-line pressure transducer for direct IOP control. Surface wave velocity, a non-destructive measure of tissue stiffness, was measured across the ON/LC and PS before and after collagen crosslinking at IOP of 10 and 30 mmHg (groups 1 and 2) and at each globe's preinflation IOP and 80 mmHg (group 3). In group 3, papillary strain was measured by analyzing the displacement of fiducial marks immediately adjacent to the ON/LC using digital photography.
(§4) Surface wave velocity (SWV) is a measure of tissue stiffness that has been used in dermatologic applications to measure age-related changes (Potts R O, et al., J Invest Dermatol.; 82(1):97-100 (1984); Potts R O, et al., J Biomech.; 16(6):365-372 (1983); Davis B R, et al., Exp Gerontol; 24(3):201-210 (1989)), softening effects of tissue hydration and skin creams (Vexler A, et al., J Invest Dermatol; 113(5):732-739 (1999)), and sclerosing effects of radiation on breast skin (Gorodetsky R, et al., Int J Radiat Oncol Biol Phys.; 45(4):893-900 (1999)). When acoustic waves in the 0.5 to 30 kHz frequency range are used, propagation speed in skin is related to the density and stiffness of the tissue (Pereira J M, et al., J Biomech.; 23(8):745-751 (1990)). A prototype handheld ocular surface elastometer (Sonic Eye, Priavision, Menlo Park, Calif.) with an operating frequency within this range (4 kHz) and a fixed 4.5 mm wave propagation distance has been described in detail elsewhere (Dupps W J Jr, et al., J Refract Surg.; 23(1):66-75 (2007)). The Sonic Eye was used in this study as a non-destructive means of measuring local in situ tissue stiffness across and around the optic nerve head.
Eighteen porcine eyes were obtained from a local abattoir (Heffelfingers Meats, Inc., Jeromesville, Ohio) and were used within 24 hours postmortem. The optic nerves were dissected under microscopic visualization to expose the ON/LC (FIG. 1). […]
(§5) Three experimental groups of 6 eyes each were defined. In group 1, SWV across the optic nerve/lamina cribrosa complex and peripapillary scleral regions of interest were measured at 10 and 30 mmHg to represent a physiological range of pressures. […]

peripapillary sclera = test: Surface wave velocity (stiffness) of the peripapillary sclera of whole globes, Sonic Eye elastometer; set-up: species or system porcine; details: riboflavin 1% + UVA 30 min
Method: as §1, §2, §3, §4
Eighteen porcine eyes were obtained from a local abattoir (Heffelfingers Meats, Inc., Jeromesville, Ohio) and were used within 24 hours postmortem. The optic nerves were dissected under microscopic visualization to expose the ON/LC (FIG. 1). […] Replicate SWV measurements were obtained at a rate of 1 per second with a triggering foot pedal to produce at least 5 measurements that were subsequently averaged for each region of interest. A PC software interface converted the time-of-flight data to velocity in meters per second (m/s), and the velocity data were exported to Excel (v. 11, SP2; Microsoft Corp, Redmond, Wash.) and Minitab (v. 14.20; Minitab Inc, State College, Pa.) for statistical analysis.
as §5

rabbit eyes = details: 370 nm light at 4.2 mW/cm2; cited from earlier work
keratoconus = details: topical riboflavin with UVA light exposure; cited from earlier work
retinal ganglion cells = details: by inhibiting nitric oxide synthase; cited from earlier work

CC(=O)C=O [methylglyoxal]
Increase of stress with 20% strain of human PS (human PS): > 3 fold
Increase of stress with 20% strain of human LC (human LC): > 2 fold

O=CC(O)CO (stereo not shown) [glyceraldehydes, glyceraldehyde]
Rise in porcine scleral stress (rigidity) (porcine sclera): 5 ×
Rise in human scleral stress (rigidity) (human sclera): 34%
Increase of stress with 20% strain of human PS (human PS): > 2 fold
Increase of stress with 20% strain of human LC (human LC): > 1.5 fold

Cc1cc2nc3c(=O)[nH]c(=O)nc-3n(C[C@H](O)[C@H](O)[C@H](O)COP(=O)(O)O)c2cc1C [UVA+riboflavin, riboflavin-5-phosphate]
Mean surface wave velocity of cornea after crosslinking (porcine corneas; 0.1% riboflavin-5-phosphate drops every 5 min, UVA 4.2 mW/cm2 370 nm 30 min): 111.35±2.16 m/s
Increase of mean surface wave velocity of cornea after crosslinking (porcine corneas; from 93.6 to 111.3 m/s, p=0.032): 17.7 units

CC(=O)N[C@@H](CS)C(=O)O [N-acetylcysteine]
Protection of neurons from the neurotoxic effect of 3-deoxyglucosone and methylglyoxal (cortical neurons): protected the neurons

CC1(C)C(/C=C/C=C/C=C/C=C2\N(CCCCS(=O)(=O)O)c3ccc4ccccc4c3C2(C)C)=[N+](CCCCS(=O)(=O)[O-])c2ccc3ccccc3c21 [ICG, indocyanine green]
Stiffness of the internal limiting membrane of the retina [1]: increase the stiffness

Cc1cc2nc3c(=O)[nH]c(=O)nc-3n(C[C@H](O)[C@H](O)[C@H](O)CO)c2cc1C [riboflavin/UVA, riboflavin]
Change of SWV of the ON/LCC upon raising the IOP to 100 mmHg after crosslinking ([2]; riboflavin 1% + UVA 30 min, p=0.1): no change
SWV (stiffness) of the ON/LCC after crosslinking ([2]; riboflavin 1% Q 5 min x6 + UVA ~365 nm 3 mW/cm^2 30 min to ON/LCC and PS, pre-treatment IOP, mean±SD): 32.8±1.1 m/s
SWV of the peripapillary sclera after crosslinking at 100 mmHg (peripapillary sclera; Example 1 group 2, IOP 100 mmHg): 63.5±1.8 m/s
SWV (stiffness) of the peripapillary sclera after crosslinking (peripapillary sclera; Example 1 group 2, pre-treatment IOP, mean±SD): 55.7±1.5 m/s
Stiffness of Peripapillary Sclera, Post-crosslinking Mean ± SD (peripapillary sclera; Example 3 Group 1, Low IOP 10 mmHg): 85.5 ± 13.5 m/s
Rise in porcine scleral stress (rigidity) (porcine sclera): 1.5 ×
Rise in human scleral stress (rigidity) (human sclera): 29%
Retinal cell death after riboflavin and irradiation (rabbit eyes): retinal pigment epithelium (RPE), photoreceptor and outer nuclear layer death
Clinical effect in keratoconus (keratoconus): used effectively as a stabilizing treatment for keratoconus

N=C(N)NN [aminoguanidine]
Protection of neurons from the neurotoxic effect of 3-deoxyglucosone and methylglyoxal (cortical neurons): protected the neurons
Neuroprotective effect to retinal ganglion cells (retinal ganglion cells): neuroprotective effect

O=CC(=O)C[C@H](O)[C@H](O)CO [3-deoxyglucosone]
Neurotoxic effect to cortical neurons (cortical neurons): neurotoxic effect
